This assay concerns CD2F1 mice, L1210 leukemia ip, survival T/C. Kind of assay: NCI In Vivo Anticancer Drug Screen. Data for tumor model L1210 Leukemia (intraperitoneal) in CD2F1 (CDF1) mice. Particulars: higher = longer survival. In a few lines:
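Activity against a transplanted murine tumor was judged by comparing the compound group with a vehicle group. The outcome in the treated animals was divided by that in the controls.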

The mark [1] stands for this setting: endpoint: mean survival time, dose: 100.0 mg/kg/injection, schedule: Q04DX003 (ip), vehicle: saline with Tween-80.
Setting [2] is: endpoint: mean survival time, dose: 200.0 mg/kg/injection, schedule: Q04DX003 (ip), vehicle: saline with Tween-80.
Setting [3] is: endpoint: mean survival time, dose: 400.0 mg/kg/injection, schedule: Q04DX003 (ip), vehicle: saline with Tween-80.
Setting [4] is: endpoint: mean survival time, dose: 12.5 mg/kg/injection, schedule: Q01DX009 (ip), vehicle: saline with Tween-80.
Setting [5] is: endpoint: mean survival time, dose: 100.0 mg/kg/injection, schedule: Q01DX001 (ip), vehicle: saline with Tween-80.
The mark [6] stands for this setting: endpoint: mean survival time, dose: 200.0 mg/kg/injection, schedule: Q01DX001 (ip), vehicle: saline with Tween-80.
[7] abbreviates: endpoint: mean survival time, dose: 400.0 mg/kg/injection, schedule: Q01DX001 (ip), vehicle: saline with Tween-80.
The mark [8] stands for this setting: endpoint: mean survival time, dose: 50.0 mg/kg/injection, schedule: Q01DX009 (ip), vehicle: saline with Tween-80.
Setting [9] is: endpoint: mean survival time, dose: 100.0 mg/kg/injection, schedule: Q01DX009 (ip), vehicle: saline with Tween-80.
Where [10] appears, read: endpoint: mean survival time, dose: 200.0 mg/kg/injection, schedule: Q01DX009 (ip), vehicle: saline with Tween-80.
Setting [11] is: endpoint: mean survival time, dose: 400.0 mg/kg/injection, schedule: Q01DX009 (ip), vehicle: saline with Tween-80.
[12] abbreviates: endpoint: mean survival time, dose: 25.0 mg/kg/injection, schedule: Q04DX002 (ip), vehicle: saline with Tween-80.
Where [13] appears, read: endpoint: mean survival time, dose: 50.0 mg/kg/injection, schedule: Q04DX002 (ip), vehicle: saline with Tween-80.
Setting [14] is: endpoint: mean survival time, dose: 100.0 mg/kg/injection, schedule: Q04DX002 (ip), vehicle: saline with Tween-80.

Several values for one entry are separate records, joined by “and”; a condition that tells them apart may be missing. Equal values may be shown once. Toxic doses and inconclusive results are not listed.

As to `[Cl][Pt+2][Cl].[NH-]C(C(=O)OCc1ccccc1)c1ccccc1.[NH-]C(C(=O)OCc1ccccc1)c1ccccc1` (configuration not stated), the T/C (endpoint: median survival time, dose: 3.12 mg/kg/injection, schedule: Q04DX003 (ip), vehicle: saline) is 103 % of control; the T/C (endpoint: median survival time, dose: 6.25 mg/kg/injection, schedule: Q04DX003 (ip), vehicle: saline) is 109 % of control; the T/C (endpoint: median survival time, dose: 12.5 mg/kg/injection, schedule: Q04DX003 (ip), vehicle: saline) is 98 % of control; the T/C (endpoint: median survival time, dose: 25.0 mg/kg/injection, schedule: Q04DX003 (ip), vehicle: saline) was 101 % of control; the T/C (endpoint: median survival time, dose: 50.0 mg/kg/injection, schedule: Q04DX003 (ip), vehicle: saline) is 109 % of control; the T/C (endpoint: median survival time, dose: 100.0 mg/kg/injection, schedule: Q04DX003 (ip), vehicle: saline) was 109 % of control. Besides, for the setting “endpoint: median survival time, dose: 200.0 mg/kg/injection, schedule: Q04DX003 (ip), vehicle: saline”, the T/C was 111 % of control.
In the case of `Cc1ccc(Cc2cc(=O)[nH]c(=O)[nH]2)cc1`, the T/C was 96 % of control (endpoint: mean survival time, dose: 25.0 mg/kg/injection, schedule: Q01DX009 (ip), vehicle: Klucel (hydroxypropylcellulose) (HPC)); 100 % of control (endpoint: mean survival time, dose: 50.0 mg/kg/injection, schedule: Q01DX009 (ip), vehicle: Klucel (hydroxypropylcellulose) (HPC)); 94 % of control and 96 % of control (endpoint: mean survival time, dose: 100.0 mg/kg/injection, schedule: Q01DX009 (ip), vehicle: Klucel (hydroxypropylcellulose) (HPC)).
With `Nc1ccc(CCCCc2nc(N)nc(N)c2-c2ccc(Cl)c(Cl)c2)cc1`, the T/C under setting [1] is 98 % of control, the T/C under setting [2] was 100 % of control and the T/C under setting [3] was 113 % of control.
In the case of `N#CSCc1ccccc1`, the T/C under setting [4] is 100 % of control.
Take `CCn1c(=O)c2[nH]c(Cl)nc2n(CC)c1=O`: the T/C by setting is: (endpoint: mean survival time, dose: 25.0 mg/kg/injection, schedule: Q04DX003 (ip), vehicle: Klucel (hydroxypropylcellulose) (HPC)) 102 % of control; (endpoint: mean survival time, dose: 50.0 mg/kg/injection, schedule: Q04DX003 (ip), vehicle: Klucel (hydroxypropylcellulose) (HPC)) 105 % of control; (endpoint: mean survival time, dose: 100.0 mg/kg/injection, schedule: Q04DX003 (ip), vehicle: Klucel (hydroxypropylcellulose) (HPC)) 107 % of control.
As to `Oc1ccccc1/C=N\N=C\c1ccccc1O`, the T/C under setting [5] is 97 % of control, the T/C under setting [6] was 106 % of control and the T/C under setting [7] is 100 % of control.
For `CC(C)(O)c1cccc(F)c1`, the T/C was 102 % of control under setting [8], 98 % of control under setting [9], 102 % of control under setting [10] and 102 % of control under setting [11].
On to `O=[N+]([O-])c1cccc2c1cc([N+](=O)[O-])c1cccnc12`, for which the T/C is 98 % of control under setting [12], 98 % of control under setting [13] and 98 % of control under setting [14].
For `CC1(C)CC(=O)C=C(N)C1`, the T/C by setting is: under setting [9], 100 % of control; under setting [10], 97 % of control; under setting [11], 108 % of control.
As for `CCCCCCCCCCCCNC1=CC(=O)c2nccnc2C1=O`, the T/C by setting is: (endpoint: mean survival time, dose: 6.25 mg/kg/injection, schedule: Q01DX009 (ip), vehicle: saline with Tween-80) 98 % of control; under setting [4], 95 % of control; (endpoint: mean survival time, dose: 25.0 mg/kg/injection, schedule: Q01DX009 (ip), vehicle: saline with Tween-80) 91 % of control; under setting [8], 91 % of control; under setting [9], 95 % of control.
For the molecule `O=C(O)C(O)C(O)C(=O)O.[NH-]C1CCCCC1[NH-].[Pt+2]` (configuration not stated), the T/C was 115 % of control (endpoint: mean survival time, dose: 1.56 mg/kg/injection, schedule: Q04DX003 (ip), vehicle: water); 367 % of control (endpoint: mean survival time, dose: 12.5 mg/kg/injection, schedule: Q04DX003 (ip), vehicle: water); 266 % of control (endpoint: mean survival time, dose: 25.0 mg/kg/injection, schedule: Q04DX003 (ip), vehicle: water); 201 % of control (endpoint: mean survival time, dose: 50.0 mg/kg/injection, schedule: Q04DX003 (ip), vehicle: water).
With `CCCCCC(C)(C)N=[P+]([O-])NC(C)(C)CCCCC` (configuration not stated), the T/C runs as follows: under setting [12], 95 % of control; under setting [13], 102 % of control; under setting [14], 95 % of control and 98 % of control.
Consider `O=C(c1ccccc1)C1OC1c1ccccc1` (configuration not stated), for which the T/C is 93 % of control under setting [9]; 101 % of control under setting [1]; 94 % of control under setting [10]; 98 % of control under setting [2]; 94 % of control under setting [11]; 101 % of control under setting [3].
`CCCCOC(=O)c1ccccc1C(=O)O.CCCCOC(=O)c1ccccc1C(=O)O.[Cu+2]`: the T/C runs as follows: (endpoint: mean survival time, dose: 6.25 mg/kg/injection, schedule: Q04DX003 (ip), vehicle: saline with Tween-80) 91 % of control; (endpoint: mean survival time, dose: 12.5 mg/kg/injection, schedule: Q04DX003 (ip), vehicle: saline with Tween-80) 95 % of control; (endpoint: mean survival time, dose: 25.0 mg/kg/injection, schedule: Q04DX003 (ip), vehicle: saline with Tween-80) 93 % of control.
As to `Cc1ccc(-c2nn[nH]n2)cc1[N+](=O)[O-]`, the T/C runs as follows: under setting [5], 109 % of control; under setting [1], 95 % of control; under setting [6], 86 % of control; under setting [2], 97 % of control; under setting [7], 89 % of control; under setting [3], 95 % of control.
Take `COc1cccc(NC(=S)NC(Cc2ccccc2)c2ccccc2)c1` (configuration not stated): the T/C is 101 % of control (endpoint: mean survival time, dose: 100.0 mg/kg/injection, schedule: Q01DX001 (ip), vehicle: Klucel (hydroxypropylcellulose) (HPC)); 91 % of control (endpoint: mean survival time, dose: 200.0 mg/kg/injection, schedule: Q01DX001 (ip), vehicle: Klucel (hydroxypropylcellulose) (HPC)); 96 % of control (endpoint: mean survival time, dose: 400.0 mg/kg/injection, schedule: Q01DX001 (ip), vehicle: Klucel (hydroxypropylcellulose) (HPC)).
For the molecule `COc1c(C=O)c2c(c(OC)c1OC)-c1ccc(OC)c(=O)cc1[C@@H](NC(C)=O)CC2`, the T/C (endpoint: median survival time, dose: 12.5 mg/kg/injection, schedule: Q01DX009 (ip), vehicle: Klucel (hydroxypropylcellulose) (HPC)) was 100 % of control.
Consider `CCc1ccc(N=Nc2ccc(N(C)C)cc2)cc1CC`, for which the T/C reads like this: (endpoint: mean survival time, dose: 75.0 mg/kg/injection, schedule: Q04DX002 (ip), vehicle: saline with Tween-80) 92 % of control; (endpoint: mean survival time, dose: 150.0 mg/kg/injection, schedule: Q04DX002 (ip), vehicle: saline with Tween-80) 92 % of control; (endpoint: mean survival time, dose: 300.0 mg/kg/injection, schedule: Q04DX002 (ip), vehicle: saline with Tween-80) 88 % of control.
As for `CCS/C(SC)=C(/c1ccccc1)[P+](c1ccccc1)(c1ccccc1)c1ccccc1`, the T/C is 111 % of control (endpoint: median survival time, dose: 1.5 mg/kg/injection, schedule: Q01DX009 (ip), vehicle: Klucel (hydroxypropylcellulose) (HPC)) and 114 % of control (endpoint: median survival time, dose: 3.0 mg/kg/injection, schedule: Q01DX009 (ip), vehicle: Klucel (hydroxypropylcellulose) (HPC)).
In the case of `O=C(COc1ccc(Cl)cc1C(=O)O)NCc1cccc(NC(=O)Nc2cccc(S(=O)(=O)F)c2)c1`, the T/C is, setting by setting: under setting [5], 91 % of control; under setting [6], 93 % of control; under setting [7], 88 % of control.
Regarding `CCC[S][Pb]([c]1ccccc1)([c]1ccccc1)[c]1ccccc1`, the T/C reads like this: (endpoint: mean survival time, dose: 10.0 mg/kg/injection, schedule: Q01DX001 (ip), vehicle: Klucel (hydroxypropylcellulose) (HPC)) 98 % of control; (endpoint: mean survival time, dose: 20.0 mg/kg/injection, schedule: Q01DX001 (ip), vehicle: Klucel (hydroxypropylcellulose) (HPC)) 101 % of control; (endpoint: mean survival time, dose: 40.0 mg/kg/injection, schedule: Q01DX001 (ip), vehicle: Klucel (hydroxypropylcellulose) (HPC)) 104 % of control.
For `Nc1nc(=O)n(CCCOc2cccc(NC(=O)c3cccc(S(=O)(=O)F)c3)c2)cc1-c1ccc(Cl)c(Cl)c1`, the T/C is 87 % of control under setting [5], 90 % of control under setting [6] and 87 % of control under setting [7].
Consider `Nc1ccc2c(c1)[nH]c1ccccc12`, for which the T/C was 93 % of control under setting [1] and 101 % of control under setting [2].
Regarding `CC(=O)c1ccc(N=C2C=CC(=O)O2)cc1`, the T/C is 102 % of control under setting [1], 96 % of control under setting [2] and 96 % of control under setting [3].
As for `CSc1ccc(N2C(N)=NC(N)=NC2(C)C)cc1`, the T/C is 95 % of control (endpoint: mean survival time, dose: 25.0 mg/kg/injection, schedule: Q04DX002 (ip), vehicle: saline) and 91 % of control (endpoint: mean survival time, dose: 50.0 mg/kg/injection, schedule: Q04DX002 (ip), vehicle: saline).
